Columns and labels:
Experiment in all cases: radiometric filter-binding kinase assay, Kinaseprofiler
WNK3 (human) = WNK3 (human) (UniProt Q9BYP7); settings: ATP 200 µM
RPS6KA4 KD1 KD2 (human) = RPS6KA4 KD1 KD2 (human) (UniProt O75676); settings: ATP 45 µM
MAPK1 (human) = MAPK1 (human) (UniProt P28482); settings: ATP 155 µM
FRK (human) = FRK (human) (UniProt P42685); settings: ATP 155 µM
GCK (human) = GCK (human) (UniProt Q12851); settings: ATP 200 µM
PTK6 (human) = PTK6 (human) (UniProt Q13882); settings: ATP 15 µM
CDK2 CCNA2 (human) = CDK2 CCNA2 (human) (UniProt P24941+P20248); settings: ATP 45 µM
SGK3 (human) = SGK3 (human) (UniProt Q96BR1); settings: ATP 155 µM
Chain of SGK3 (human) (Q96BR1 whole entry, looked up): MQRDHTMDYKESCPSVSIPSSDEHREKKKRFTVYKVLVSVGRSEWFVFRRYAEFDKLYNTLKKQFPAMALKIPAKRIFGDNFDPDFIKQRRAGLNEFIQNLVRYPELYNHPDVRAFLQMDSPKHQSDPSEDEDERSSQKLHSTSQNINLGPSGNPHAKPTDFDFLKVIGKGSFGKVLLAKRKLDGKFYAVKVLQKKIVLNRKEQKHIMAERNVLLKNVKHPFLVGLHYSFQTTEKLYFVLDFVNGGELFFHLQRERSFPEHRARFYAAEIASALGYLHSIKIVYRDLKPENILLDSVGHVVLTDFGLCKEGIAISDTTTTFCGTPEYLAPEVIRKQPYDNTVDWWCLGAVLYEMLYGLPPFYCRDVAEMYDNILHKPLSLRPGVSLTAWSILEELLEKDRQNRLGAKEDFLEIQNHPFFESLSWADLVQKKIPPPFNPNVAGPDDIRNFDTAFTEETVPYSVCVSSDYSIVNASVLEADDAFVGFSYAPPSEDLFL

FGFR2 (human) = FGFR2 (human) (UniProt P21802); settings: ATP 90 µM
MST1R (human) = MST1R (human) (UniProt Q04912); settings: ATP 70 µM
[1] = biological target: JAK2 JH1 catalytic (human) (UniProt O60674); settings: ATP 45 µM
CDK6 CCND3 (human) = CDK6 CCND3 (human) (UniProt P30281+Q00534); settings: ATP 200 µM
Chain of CDK6 CCND3 (human) (P30281 whole entry, looked up): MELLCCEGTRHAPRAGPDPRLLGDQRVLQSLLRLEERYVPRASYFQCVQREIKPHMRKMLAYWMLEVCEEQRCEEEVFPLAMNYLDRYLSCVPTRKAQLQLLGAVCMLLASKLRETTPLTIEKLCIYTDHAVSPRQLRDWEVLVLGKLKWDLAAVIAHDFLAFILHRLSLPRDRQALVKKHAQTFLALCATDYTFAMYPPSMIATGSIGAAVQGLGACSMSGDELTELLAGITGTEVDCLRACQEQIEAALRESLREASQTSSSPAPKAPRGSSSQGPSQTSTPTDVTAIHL
Chain of CDK6 CCND3 (human) (Q00534 whole entry, looked up): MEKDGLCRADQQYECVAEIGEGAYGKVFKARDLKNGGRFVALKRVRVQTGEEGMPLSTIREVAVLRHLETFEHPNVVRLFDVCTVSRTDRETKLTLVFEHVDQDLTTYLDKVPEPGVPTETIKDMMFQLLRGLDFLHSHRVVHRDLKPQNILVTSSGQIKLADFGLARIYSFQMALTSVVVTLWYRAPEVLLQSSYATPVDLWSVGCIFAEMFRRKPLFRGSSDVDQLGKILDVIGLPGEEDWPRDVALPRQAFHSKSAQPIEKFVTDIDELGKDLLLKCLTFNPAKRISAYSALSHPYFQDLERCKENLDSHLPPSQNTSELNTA

STK10 (human) = STK10 (human) (UniProt O94804); settings: ATP 200 µM
TNK2 (human) = TNK2 (human) (UniProt Q07912); settings: ATP 70 µM
Chain of TNK2 (human) (Q07912 whole entry, looked up): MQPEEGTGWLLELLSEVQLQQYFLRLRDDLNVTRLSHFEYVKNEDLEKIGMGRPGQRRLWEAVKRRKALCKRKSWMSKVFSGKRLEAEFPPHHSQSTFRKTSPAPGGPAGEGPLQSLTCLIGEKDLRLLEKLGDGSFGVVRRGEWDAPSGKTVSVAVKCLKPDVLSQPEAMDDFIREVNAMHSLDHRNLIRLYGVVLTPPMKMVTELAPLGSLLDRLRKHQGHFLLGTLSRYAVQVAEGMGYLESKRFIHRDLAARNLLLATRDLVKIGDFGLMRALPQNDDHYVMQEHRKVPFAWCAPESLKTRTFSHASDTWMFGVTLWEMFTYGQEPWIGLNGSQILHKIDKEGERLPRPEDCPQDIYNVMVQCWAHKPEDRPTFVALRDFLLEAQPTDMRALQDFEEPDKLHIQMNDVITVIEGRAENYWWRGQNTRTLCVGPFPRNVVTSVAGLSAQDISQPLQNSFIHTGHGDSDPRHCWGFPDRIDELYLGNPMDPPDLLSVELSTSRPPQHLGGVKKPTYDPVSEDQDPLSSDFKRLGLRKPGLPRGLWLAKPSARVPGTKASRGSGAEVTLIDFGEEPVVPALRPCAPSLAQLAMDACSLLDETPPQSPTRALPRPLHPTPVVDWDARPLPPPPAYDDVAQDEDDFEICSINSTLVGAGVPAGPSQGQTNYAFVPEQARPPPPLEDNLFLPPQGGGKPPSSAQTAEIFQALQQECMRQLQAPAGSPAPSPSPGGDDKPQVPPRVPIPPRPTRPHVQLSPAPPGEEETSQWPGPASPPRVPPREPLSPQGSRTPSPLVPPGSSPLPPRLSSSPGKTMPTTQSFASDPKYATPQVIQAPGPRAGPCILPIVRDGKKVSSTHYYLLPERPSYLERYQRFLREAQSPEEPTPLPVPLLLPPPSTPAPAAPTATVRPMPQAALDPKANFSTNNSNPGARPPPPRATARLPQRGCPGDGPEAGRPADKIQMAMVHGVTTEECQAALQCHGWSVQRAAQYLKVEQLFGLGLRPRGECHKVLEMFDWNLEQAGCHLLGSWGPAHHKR

CSNK1G1 (human) = CSNK1G1 (human) (UniProt Q9HCP0); settings: ATP 15 µM
NUAK1 (human) = NUAK1 (human) (UniProt O60285); settings: ATP 45 µM
Chain of NUAK1 (human) (O60285 whole entry, looked up): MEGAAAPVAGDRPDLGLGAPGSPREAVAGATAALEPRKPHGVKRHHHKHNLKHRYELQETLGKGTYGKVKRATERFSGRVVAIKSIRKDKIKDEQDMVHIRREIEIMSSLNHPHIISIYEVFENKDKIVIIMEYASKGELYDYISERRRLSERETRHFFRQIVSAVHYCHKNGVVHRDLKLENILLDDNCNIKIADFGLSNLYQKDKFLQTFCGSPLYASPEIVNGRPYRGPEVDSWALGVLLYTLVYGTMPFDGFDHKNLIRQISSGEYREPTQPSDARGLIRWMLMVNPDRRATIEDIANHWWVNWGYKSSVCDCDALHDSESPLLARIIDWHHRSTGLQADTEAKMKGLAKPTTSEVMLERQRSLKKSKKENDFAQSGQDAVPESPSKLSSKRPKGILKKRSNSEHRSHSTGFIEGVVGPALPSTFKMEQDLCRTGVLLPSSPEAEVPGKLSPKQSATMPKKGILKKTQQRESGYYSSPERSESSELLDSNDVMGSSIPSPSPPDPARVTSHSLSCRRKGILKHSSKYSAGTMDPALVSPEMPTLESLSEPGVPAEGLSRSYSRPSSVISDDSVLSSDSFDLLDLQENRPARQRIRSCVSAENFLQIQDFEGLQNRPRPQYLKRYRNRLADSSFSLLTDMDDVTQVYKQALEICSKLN

MKNK2 (human) = MKNK2 (human) (UniProt Q9HBH9); settings: ATP 120 µM
STK24 (human) = STK24 (human) (UniProt Q9Y6E0); settings: ATP 15 µM
EPHA7 (human) = EPHA7 (human) (UniProt Q15375); settings: ATP 90 µM
TLK2 (human) = TLK2 (human) (UniProt Q86UE8); settings: ATP 10 µM
PRKD2 (human) = PRKD2 (human) (UniProt Q9BZL6); settings: ATP 155 µM
TBK1 (human) = TBK1 (human) (UniProt Q9UHD2); settings: ATP 155 µM
IGF1R (human) = IGF1R (human) (UniProt P08069); settings: compound 1.0 µM
SRC (human) = SRC (human) (UniProt P12931); settings: ATP 200 µM
Chain of SRC (human) (P12931 whole entry, looked up): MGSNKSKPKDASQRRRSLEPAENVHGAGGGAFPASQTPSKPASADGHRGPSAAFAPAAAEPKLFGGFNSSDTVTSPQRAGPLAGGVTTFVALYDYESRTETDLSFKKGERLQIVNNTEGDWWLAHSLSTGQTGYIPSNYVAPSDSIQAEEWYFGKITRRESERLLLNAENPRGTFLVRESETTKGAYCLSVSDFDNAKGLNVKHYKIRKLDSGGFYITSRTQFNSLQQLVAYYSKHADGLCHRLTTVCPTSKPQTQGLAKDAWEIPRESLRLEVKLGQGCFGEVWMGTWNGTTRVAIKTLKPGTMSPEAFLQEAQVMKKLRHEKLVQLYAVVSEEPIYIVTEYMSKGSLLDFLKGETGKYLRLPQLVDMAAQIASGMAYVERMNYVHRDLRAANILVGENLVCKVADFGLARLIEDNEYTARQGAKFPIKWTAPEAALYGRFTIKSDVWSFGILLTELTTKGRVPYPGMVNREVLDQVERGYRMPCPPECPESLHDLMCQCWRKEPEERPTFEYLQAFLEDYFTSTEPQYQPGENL

DAPK2 (human) = DAPK2 (human) (UniProt Q9UIK4); settings: ATP 10 µM
ITK (human) = ITK (human) (UniProt Q08881); settings: ATP 200 µM
Chain of ITK (human) (Q08881 whole entry, looked up): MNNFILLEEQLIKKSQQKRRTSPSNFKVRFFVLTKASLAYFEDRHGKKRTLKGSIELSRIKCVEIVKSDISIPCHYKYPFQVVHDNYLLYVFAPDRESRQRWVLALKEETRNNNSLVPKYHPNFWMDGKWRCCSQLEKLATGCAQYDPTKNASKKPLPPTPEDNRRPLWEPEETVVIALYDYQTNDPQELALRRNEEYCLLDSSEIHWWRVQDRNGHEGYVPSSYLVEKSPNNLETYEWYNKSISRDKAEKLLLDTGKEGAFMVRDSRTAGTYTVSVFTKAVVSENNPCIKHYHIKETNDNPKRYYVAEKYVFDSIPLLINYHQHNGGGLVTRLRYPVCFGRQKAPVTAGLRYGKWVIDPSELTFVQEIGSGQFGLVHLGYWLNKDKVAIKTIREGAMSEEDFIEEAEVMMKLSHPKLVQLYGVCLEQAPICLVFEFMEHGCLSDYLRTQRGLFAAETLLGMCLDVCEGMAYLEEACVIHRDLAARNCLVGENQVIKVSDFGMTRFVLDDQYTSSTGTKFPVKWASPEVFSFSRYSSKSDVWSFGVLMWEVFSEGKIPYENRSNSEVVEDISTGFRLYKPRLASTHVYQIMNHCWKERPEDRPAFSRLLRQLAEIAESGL

EPHA2 (human) = EPHA2 (human) (UniProt P29317); settings: ATP 155 µM
ERBB4 (human) = ERBB4 (human) (UniProt Q15303); settings: ATP 15 µM
PDGFRA (human) = PDGFRA (human) (UniProt P16234); settings: ATP 120 µM
CSNK2A2 (human) = CSNK2A2 (human) (UniProt P19784); settings: ATP 10 µM
FGFR4 (human) = FGFR4 (human) (UniProt P22455); settings: ATP 155 µM
PDPK1 (human) = PDPK1 (human) (UniProt O15530); settings: ATP 10 µM
Chain of PDPK1 (human) (O15530 whole entry, looked up): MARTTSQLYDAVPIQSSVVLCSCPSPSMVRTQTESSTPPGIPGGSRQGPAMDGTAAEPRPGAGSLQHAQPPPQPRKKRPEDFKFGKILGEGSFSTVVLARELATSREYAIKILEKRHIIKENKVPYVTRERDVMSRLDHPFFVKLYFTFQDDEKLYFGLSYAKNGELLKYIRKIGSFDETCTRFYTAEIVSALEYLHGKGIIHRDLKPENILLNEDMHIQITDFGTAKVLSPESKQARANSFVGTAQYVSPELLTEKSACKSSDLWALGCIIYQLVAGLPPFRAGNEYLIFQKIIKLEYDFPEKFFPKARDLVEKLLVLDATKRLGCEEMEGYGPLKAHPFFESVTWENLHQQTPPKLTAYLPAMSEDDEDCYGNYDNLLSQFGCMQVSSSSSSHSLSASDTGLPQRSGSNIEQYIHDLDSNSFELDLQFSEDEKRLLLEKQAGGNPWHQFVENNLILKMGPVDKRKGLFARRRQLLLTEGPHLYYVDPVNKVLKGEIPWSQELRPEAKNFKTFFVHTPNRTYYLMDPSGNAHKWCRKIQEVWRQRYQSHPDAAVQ

RPS6KA6 KD1 KD2 (human) = RPS6KA6 KD1 KD2 (human) (UniProt Q9UK32); settings: ATP 45 µM

Chain of MAPK1 (human) (P28482 whole entry, looked up): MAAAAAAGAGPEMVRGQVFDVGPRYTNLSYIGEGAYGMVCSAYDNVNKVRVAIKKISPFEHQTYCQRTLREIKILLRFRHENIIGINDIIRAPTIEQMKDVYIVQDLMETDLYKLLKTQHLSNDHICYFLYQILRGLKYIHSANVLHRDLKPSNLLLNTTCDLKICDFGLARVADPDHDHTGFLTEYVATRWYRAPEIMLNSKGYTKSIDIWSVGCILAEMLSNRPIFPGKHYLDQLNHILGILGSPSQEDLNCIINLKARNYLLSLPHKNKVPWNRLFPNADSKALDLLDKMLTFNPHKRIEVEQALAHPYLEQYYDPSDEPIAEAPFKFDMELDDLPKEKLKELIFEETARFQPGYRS

## O=C1c2ccccc2-c2n[nH]c3cccc1c23
WNK3 (human); compound 1.0 µM
  residual activity: 87%
WNK3 (human); compound 10.0 µM
  residual activity: 77%
RPS6KA4 KD1 KD2 (human); compound 1.0 µM
  residual activity: 76%
RPS6KA4 KD1 KD2 (human); compound 10.0 µM
  residual activity: 36%
MAPK1 (human); compound 1.0 µM
  residual activity: 88%
MAPK1 (human); compound 10.0 µM
  residual activity: 55%
FRK (human); compound 1.0 µM
  residual activity: 91%
FRK (human); compound 10.0 µM
  residual activity: 58%
GCK (human); compound 1.0 µM
  residual activity: 16%
GCK (human); compound 10.0 µM
  residual activity: 2%
PTK6 (human); compound 1.0 µM
  residual activity: 95%
PTK6 (human); compound 10.0 µM
  residual activity: 95%
CDK2 CCNA2 (human); compound 1.0 µM
  residual activity: 59%
CDK2 CCNA2 (human); compound 10.0 µM
  residual activity: 36%
SGK3 (human); compound 1.0 µM
  residual activity: 85%
SGK3 (human); compound 10.0 µM
  residual activity: 58%
FGFR2 (human); compound 1.0 µM
  residual activity: 52%
FGFR2 (human); compound 10.0 µM
  residual activity: 12%
MST1R (human); compound 1.0 µM
  residual activity: 78%
MST1R (human); compound 10.0 µM
  residual activity: 51%
[1]; compound 1.0 µM
  residual activity: 58%
[1]; compound 10.0 µM
  residual activity: 11%
CDK6 CCND3 (human); compound 1.0 µM
  residual activity: 76%
CDK6 CCND3 (human); compound 10.0 µM
  residual activity: 31%
STK10 (human); compound 1.0 µM
  residual activity: 87%
STK10 (human); compound 10.0 µM
  residual activity: 62%
TNK2 (human); compound 1.0 µM
  residual activity: 50%
TNK2 (human); compound 10.0 µM
  residual activity: 12%
CSNK1G1 (human); compound 1.0 µM
  residual activity: 99%
CSNK1G1 (human); compound 10.0 µM
  residual activity: 48%
NUAK1 (human); compound 1.0 µM
  residual activity: 28%
NUAK1 (human); compound 10.0 µM
  residual activity: 17%
MKNK2 (human); compound 1.0 µM
  residual activity: 43%
MKNK2 (human); compound 10.0 µM
  residual activity: 10%
STK24 (human); compound 1.0 µM
  residual activity: 57%
STK24 (human); compound 10.0 µM
  residual activity: 21%
EPHA7 (human); compound 1.0 µM
  residual activity: 80%
EPHA7 (human); compound 10.0 µM
  residual activity: 41%
TLK2 (human); compound 1.0 µM
  residual activity: 71%
TLK2 (human); compound 10.0 µM
  residual activity: 38%
PRKD2 (human); compound 1.0 µM
  residual activity: 92%
PRKD2 (human); compound 10.0 µM
  residual activity: 36%
TBK1 (human); compound 1.0 µM
  residual activity: 35%
TBK1 (human); compound 10.0 µM
  residual activity: 11%
IGF1R (human); ATP 45 µM
  residual activity: 92%
IGF1R (human); ATP 200 µM
  residual activity: 91%
SRC (human); compound 1.0 µM
  residual activity: 89%
SRC (human); compound 10.0 µM
  residual activity: 64%
DAPK2 (human); compound 1.0 µM
  residual activity: 87%
DAPK2 (human); compound 10.0 µM
  residual activity: 43%
ITK (human); compound 1.0 µM
  residual activity: 67%
ITK (human); compound 10.0 µM
  residual activity: 21%
EPHA2 (human); compound 1.0 µM
  residual activity: 88%
EPHA2 (human); compound 10.0 µM
  residual activity: 60%
ERBB4 (human); compound 1.0 µM
  residual activity: 104%
ERBB4 (human); compound 10.0 µM
  residual activity: 97%
PDGFRA (human); compound 1.0 µM
  residual activity: 108%
PDGFRA (human); compound 10.0 µM
  residual activity: 86%
CSNK2A2 (human); compound 1.0 µM
  residual activity: 59%
CSNK2A2 (human); compound 10.0 µM
  residual activity: 18%
FGFR4 (human); compound 1.0 µM
  residual activity: 110%
FGFR4 (human); compound 10.0 µM
  residual activity: 89%
PDPK1 (human); compound 1.0 µM
  residual activity: 72%
PDPK1 (human); compound 10.0 µM
  residual activity: 19%
RPS6KA6 KD1 KD2 (human); compound 1.0 µM
  residual activity: 43%
RPS6KA6 KD1 KD2 (human); compound 10.0 µM
  residual activity: 52%

— the kinase profiling compilation of Christmann-Franck et al. (2016)
